From patent US8354403B2, “Pyrrolidine derived beta 3 adrenergic receptor agonists” (Merck Sharp & Dohme Corp., priority 2009, dated 2013)
Like-named read-outs stand apart in the source and are kept apart here.

Target: T1, human β3 adrenergic receptor (Homo sapiens, UniProt P13945)
T1 construct: expressed in transfected cells; host or cells: Chinese hamster ovary (CHO) cells, stably transfected
Assay: Beta-3 agonist in vitro functional assay: cAMP production (LANCE TR-FRET) in CHO cells stably transfected with the cloned β3 receptor
Type: cell-based
Details: cAMP, CHO cells
Method: Chinese hamster ovary (CHO) cells, stably transfected with the cloned β-adrenergic receptor (β1, β2 or β3) are harvested after 3 days of subculturing. Harvesting of cells is done with Enzyme-free Dissociation Media (Specialty Media). Cells are then counted and resuspended in assay buffer (Hank's Balanced salt solution supplemented with 5 mM HEPES, […]) containing a phosphodiesterase inhibitor (IBMX, 0.6 mM). The reaction is initiated by mixing 6,000 cells in 6 μL with 6 μL Alexa Fluor labeled cAMP antibody (LANCE™ kit) which is then added to an assay well containing 12 μL of compound (diluted in assay buffer to 2× final concentration). The reaction proceeds for 30 minutes at RT and is terminated by the addition of 24 ul detection buffer (LANCE™ kit). The assay plate is then incubated for 1 h at RT and time-resolved fluorescence measured on a Perkin Elmer Envision reader or equivalent. The unknown cAMP level is determined by comparing fluorescence levels to a cAMP standard curve.
The non-selective, full agonist β-adrenergic ligand isoproterenol is used at all three receptors to determine maximal stimulation. […] Data are analyzed using Microsoft Excel and Graphpad Prism or an internally developed data analysis software package.

[1] = Table 4, read-out: Human β3 agonist functional activity
[2] = given as a range, read-out: human β3 functional activity
[3] = Table 5, read-out: Human β3 agonist functional activity

T1 sequence (P13945 whole entry): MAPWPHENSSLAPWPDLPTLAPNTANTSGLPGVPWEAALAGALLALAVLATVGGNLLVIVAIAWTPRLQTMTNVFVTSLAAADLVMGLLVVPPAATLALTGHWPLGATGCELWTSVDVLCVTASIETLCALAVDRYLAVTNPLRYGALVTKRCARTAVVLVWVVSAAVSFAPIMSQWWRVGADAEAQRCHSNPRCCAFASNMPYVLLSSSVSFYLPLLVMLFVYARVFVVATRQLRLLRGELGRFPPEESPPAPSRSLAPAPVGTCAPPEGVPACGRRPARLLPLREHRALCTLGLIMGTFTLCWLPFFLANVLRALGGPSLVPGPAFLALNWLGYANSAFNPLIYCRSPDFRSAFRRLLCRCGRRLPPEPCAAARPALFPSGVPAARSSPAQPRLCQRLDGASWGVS

Structure (SMILES) | EC50 [3] | further results
O=C(c1ccc(C[C@@H]2CC[C@H]([C@H](O)c3cccnc3)N2)cc1)N1CCC2Oc3ccccc3OC2C1 (some centres unmarked) [Example 59] |  | EC50 [1]: 0.01 to 0.0999 µM
C[C@@H]1CN(C(=O)c2ccc(C[C@@H]3CC[C@H]([C@H](O)c4ccccc4)N3)cc2)CC[C@@H]1n1cccn1 [Example 60] |  | EC50 [1]: 0.01 to 0.0999 µM
C[C@@H]1CN(C(=O)c2ccc(C[C@@H]3CC[C@H]([C@H](O)c4ccccc4)N3)cc2)CC[C@H]1n1cccn1 [Example 61] |  | EC50 [1]: 0.1 to 0.999 µM
C[C@H]1CN(C(=O)c2ccc(C[C@@H]3CC[C@H]([C@H](O)c4ccccc4)N3)cc2)CC[C@@H]1n1cccn1 [Example 62] |  | EC50 [1]: 0.1 to 0.999 µM
O=C(c1ccc(C[C@@H]2CC[C@H]([C@H](O)c3ccccc3)N2)cc1)N1CC2CCC(C1)C2n1cnnn1 (some centres unmarked) [Example 63] |  | EC50 [1]: 0.001 to 0.0099 µM
O=C(c1ccc(C[C@@H]2CC[C@H]([C@H](O)c3ccccc3)N2)cc1)N1CCC(n2cccn2)CC1 [Example 64, (R)-phenyl[(2R,5S)-5-(4-{[4-(1H-pyrazol-1-yl)-piperidin-1-yl]carbonyl}benzyl)pyrrolidine-2-yl]methanol] |  | EC50 [2]: 0.01 to 0.0999 µM
O=C(c1ccc(C[C@@H]2CC[C@H]([C@H](O)c3cccnc3)N2)cc1)N1CCC(n2cccn2)CC1 [Example 65, (R)-[(2R,5S)-5-(4-{[4-(1H-pyrazol-1-yl)-piperidin-1-yl]carbonyl}benzyl)pyrrolidine-2-yl](pyridin-3-yl)methanol] |  | EC50 [2]: 0.1 to 0.999 µM
O=C(c1ccc(C[C@@H]2CC[C@H]([C@H](O)c3ccccc3)N2)cc1)N1CCC(c2cscn2)CC1 [Example 66, (R)-phenyl[(2R,5S)-5-(4-{[4-(1,3-thiazol-4-yl)-piperidin-1-yl]carbonyl}benzyl)pyrrolidine-2-yl]methanol] |  | EC50 [2]: 0.01 to 0.0999 µM
O=C(c1ccc(C[C@@H]2CC[C@H]([C@H](O)c3ccccc3)N2)cc1)N1CCCCC1 [Example 67] | 0.1 to 0.999 µM | 
O=C(NC1CCN(C(=O)c2ccc(C[C@@H]3CC[C@H]([C@H](O)c4ccccc4)N3)cc2)CC1)OCc1ccccc1 [Example 68] | 0.01 to 0.0999 µM | 
O=C(c1ccc(C[C@@H]2CC[C@H]([C@H](O)c3ccccc3)N2)cc1)N1CCC(N2C(=O)OCc3ccccc32)CC1 [Example 69] | 0.001 to 0.0099 µM | 
O=C(c1ccc(C[C@@H]2CC[C@H]([C@H](O)c3ccccc3)N2)cc1)N1CCC(n2ccccc2=O)CC1 [Example 70] | 0.1 to 0.999 µM | 
O=C(c1ccc(C[C@@H]2CC[C@H]([C@H](O)c3cccnc3)N2)cc1)N1CCC(N2C(=O)OCc3ccccc32)CC1 [Example 71] | 0.001 to 0.0099 µM | 
O=C(c1ccc(C[C@@H]2CC[C@H]([C@H](O)c3ccccc3)N2)cc1)N1CCC(N2Cc3ccccc3NC2=O)CC1 [Example 72] | 0.1 to 0.999 µM | 
O=C(c1ccc(C[C@@H]2CC[C@H]([C@H](O)c3ccccc3)N2)cc1)N1CCC(n2c(=O)[nH]c3nc(F)ccc32)CC1 [Example 73] | 0.01 to 0.0999 µM | 
O=C(c1ccc(C[C@@H]2CC[C@H]([C@H](O)c3ccccc3)N2)cc1)N1CCC(n2c(=O)[nH]c3ccccc32)CC1 [Example 74] | 0.1 to 0.999 µM | 
O=C(c1ccc(C[C@@H]2CC[C@H]([C@H](O)c3ccccc3)N2)cc1)N1CCC(n2c(=O)[nH]c3cc(Cl)ccc32)CC1 [Example 75] | 0.1 to 0.999 µM | 
O=C(c1ccc(C[C@@H]2CC[C@H]([C@H](O)c3ccccc3)N2)cc1)N1CCC(N2C(=O)NC3CCCCC32)CC1 (some centres unmarked) [Example 76] | 0.01 to 0.0999 µM | 
O=C(c1ccc(C[C@@H]2CC[C@H]([C@H](O)c3ccccc3)N2)cc1)N1CCC(c2nc3ccccc3o2)CC1 [Example 78] | 0.1 to 0.999 µM | 
O=C(c1ccc(C[C@@H]2CC[C@H]([C@H](O)c3ccccc3)N2)cc1)N1CCC(c2ncc(-c3ccccc3)[nH]2)CC1 [Example 79] | 0.1 to 0.999 µM | 
O=C(c1ccc(C[C@@H]2CC[C@H]([C@H](O)c3ccccc3)N2)cc1)N1CCC(n2cc(-c3ccccc3)nn2)CC1 [Example 80] | 0.1 to 0.999 µM | 
O=C(c1ccc(C[C@@H]2CC[C@H]([C@H](O)c3ccccc3)N2)cc1)N1CCC(c2nnc(-c3cnccn3)[nH]2)CC1 [Example 81] | 0.1 to 0.999 µM | 
O=C(c1ccc(C[C@@H]2CC[C@H]([C@H](O)c3ccccc3)N2)cc1)N1CCC(c2nc(-c3cccnc3)no2)CC1 [Example 82] | 0.1 to 0.999 µM | 
